Reference: patent publication US6746673B2, “Pharmaceutical compositions containing anti-Fas antibody” (Sankyo Company, Limited, priority 1999, dated 2004)

Test system: Human lymphocyte cell stock HPB-ALL
Test: XTT cell viability assay of apoptosis induction in HPB-ALL cells
Assay type: cell-based
Conditions: only methotrexate added, no anti-Fas antibody, FIG. 3
Protocol: Human lymphocyte cell stock HPB-ALL (cf. Morikawa, S., et al. (1978) Int. J. Cancer 21, 166-170) was cultured in RPMI 1640 medium containing 10% FCS (manufactured by Gibco B.R.L. Corporation) at 37° C., in the presence of 5% carbon dioxide gas for three days, and 50 μl of the culture (2.5×10^5 cells/50 μl) were dispensed into each well of a 96-well microplate (manufactured by Sumitomo Bakelite Co., Ltd.). Then, 50 μl of the RPMI medium containing methotrexate (manufactured by Sigma Chemical Company), and an anti-Fas antibody (CH11 or HFE7A, 0.001 mg/ml solution was serially diluted by three times) were added to each well, and was cultured at 37° C.
The cells in the plate to which CH11 was added as an anti-Fas antibody were kept to be cultured at 37° C. overnight. […] The plate was then incubated for 3 hours at 37° C., and the absorbance at 450 nm of each well was measured, to calculate cell viability, using the reducing power of the mitochondria as the index.
The viability of the cells in each well was calculated according to the following equation: […]
wherein “a” is the absorbance of a test well, “b” is the absorbance of a well with no cells and c is the absorbance of a well with no antibody added.

## CN(Cc1cnc2nc(N)nc(N)c2n1)c1ccc(C(=O)N[C@@H](CCC(=O)O)C(=O)O)cc1 [methotrexate, Methotrexate]
  viability of the cells: almost no change
